The source of these data is patent publication US5441941A, “1,2-dihydroellipticines with activity against CNS specific cancer” (The United States of America as represented by the …, priority 1993, dated 1995).

One data set has as its system DMS 273. Put plainly: NCI in vitro screen, SRB percent growth, Small Cell Lung Cancer.
The test system of another data set is DMS 114. Put plainly: cells. Conditions: Homo sapiens; for CC50: DMS-114, read-out: LC-50.
Setting [1] is: DMS-114, read-out: Percent Growth.

Consider `COc1ccc2[nH]c3c(C)c4c(c(C)c3c2c1)CN(C)C=C4` [Formula VII], for which the “Percent Growth” value in the data set on DMS 273 (Log10 Concentration -4.0, 100 µM) is -72%; in the data set with DMS 273 (Log10 Concentration -5.0), 10%; in the data set with DMS 273 (Log10 Concentration -6.0, 1 µM), 48%; in the data set on DMS 273 (Log10 Concentration -7.0, 0.1 µM), 77%; in the data set with DMS 273 (Log10 Concentration -8.0), 98%. Also, the CC50 in the data set with DMS 273 (read-out: LC-50, PG=-50) is 54.3 µM; in the data set on DMS 114, more than 100 µM. Moreover, the activity at 0.1 µM in the data set with DMS 114 (setting [1]) amounted to 64%. The activity at 1 µM with DMS 114 (setting [1]) was determined as 11%. Further, the activity at 10 µM in the data set with DMS 114 (setting [1]) was -37%. In addition, the activity at 100 µM in the data set with DMS 114 (setting [1]) was -46%.

Consider `Cc1ccc2[nH]c3c(C)c4c(c(C)c3c2c1)CN(C)C=C4` [Formula XI], for which the CC50 with DMS 114 amounted to 6.03 µM. Moreover, in the data set with DMS 114 (setting [1]), the activity at 0.01 µM was found to be 80%, the activity at 0.1 µM came out at 73%, the activity at 10 µM was -74% and the activity at 100 µM was -68%.
